From patent US11731976B2, “3-(ethoxydifluoromethyl)-6-(5-fluoro-6-(2,2,2-trifluoroethoxy)pyridin-3-yl)-[1,2,4]triazolo[4,3-a]pyridine as an ion channel modulator” (Praxis Precision Medicines, Inc., priority 2018, dated 2023)

Key:
[1] = molecular target: T1, human NaV1.6 (hNaV1.6) (Homo sapiens, UniProt Q9UQD0); experiment: Modulation of late sodium current (INaL), PatchXpress electrophysiology, HEK-293 cells expressing hNaV1.6; format: cell-based; settings: HEK293, late current evoked by 300 nM ATX-II, read-out: NaV 1.6 Assay Data: percent inhibition of INaL at hNaV1.6
T1 construct: expressed in transfected cells; host or cells: HEK-293
Method in brief: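 PatchXpress automated patch clamp on HEK-293 cells expressing recombinant hNaV1.6; late current enhanced with 300 nM ATX-II. INaL evoked by 200 ms steps to 0 mV from about −120 mV at 0.1 Hz, measured as mean amplitude over the final 20 ms. Percent steady-state inhibition versus control current.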

[2] = molecular target: T2, hNaV1.1-WT (Homo sapiens, UniProt P35498); experiment: Voltage step activated sodium current (Peak INa), PatchXpress, HEK-293; format: cell-based; settings: percent inhibition measured at 1 μM; step to 0 mV from half-inactivation holding potential
T2 construct: expressed in transfected cells; host or cells: HEK-293
Procedure: (§1) Functional characterization of exemplary compounds to modulate INa expressed by various human isoforms and disease-causing mutant voltage-gated sodium channels was accomplished using the PatchXpress high throughput electrophysiology platform (Molecular Devices, Sunnyvale, Calif.). HEK-293 cells expressing a recombinant, human NaV1.X sodium channel (either hNaV1.6-WT, hNaV1.6-R223G, hNaV1.6-N984K, hNaV1.6-N1768D, hNaV1.1-WT, hNaV1.2-WT, hNaV1.5-WT, hNaV1.7-WT, or hNaV1.8-WT) were grown in DMEM/high-glucose Dulbecco's modified, 10% FBS, 2 mM sodium pyruvate, 10 mM HEPES and 400 μg/mL G418. Cells were grown to 50%-80% confluency prior to harvesting. Trypsinized cells were washed, allowed to recover for 1 hour and then resuspended in extracellular recording solution at a concentration of 1×10^6 cells/ml. The onboard liquid handling facility of the PatchXpress was used for dispensing cells and applying test compounds. INa amplitude and stability were determined by analyzing the peak current amplitude.
(§2) Peak INa was evoked by depolarizing steps to 0 mV for 20 ms from a holding potential which evoked half-inactivation (e.g., −60 mV) at a frequency of 0.1 Hz. The voltage of half-inactivation was determined for each cell using a 5 sec prepulse to membrane potentials between −120 mV and −20 mV followed immediately by a voltage step to a fully activating membrane voltage (e.g., 0 mV). Following steady state block with exemplary compounds (e.g., as described herein), the degree of inhibition was measured using the average of three consecutive voltage steps. Percent steady-state inhibition of INa was calculated as: [(INa_compound)/(INa_control)]*100, where INa_compound and INa_control represent INa recorded in the presence or absence of compound, respectively.
(§3) In this table, “A” indicates inhibition between less than 0% to 50% and “B” indicates inhibition of greater than 50% and N/A indicates the compound was not tested.

[3] = molecular target: T3, hNaV1.5-WT (Homo sapiens, UniProt Q14524); experiment: as above; format: cell-based; settings: HEK293; percent inhibition measured at 1 μM; step to 0 mV from half-inactivation holding potential
T3 construct: expressed in transfected cells; host or cells: HEK-293
Procedure: as §1, §2, §3

[4] = molecular target: T4, hNaV1.6-WT (Homo sapiens, UniProt Q9UQD0); experiment: as above; format: cell-based; settings: HEK293; percent inhibition measured at 1 μM; step to 0 mV from half-inactivation holding potential
T4 construct: expressed in transfected cells; host or cells: HEK-293
Procedure: as §1, §2, §3

[5] = molecular target: T5, hNaV1.7-WT (Homo sapiens, UniProt Q15858); experiment: as above; format: cell-based; settings: HEK293; percent inhibition measured at 1 μM; step to 0 mV from half-inactivation holding potential
T5 construct: expressed in transfected cells; host or cells: HEK-293
Procedure: as §1, §2, §3

[6] = molecular target: T6, hNaV1.8-WT (Homo sapiens, UniProt Q9Y5Y9); experiment: as above; format: cell-based; settings: HEK293; percent inhibition measured at 1 μM; step to 0 mV from half-inactivation holding potential
T6 construct: expressed in transfected cells; host or cells: HEK-293
Procedure: as §1, §2, §3

[7] = molecular target: T7, hNaV1.6-N1768D (Homo sapiens, UniProt Q9UQD0, N1768D); experiment: Voltage ramp activated sodium current (Ramp INa), PatchXpress, HEK-293; format: cell-based; settings: HEK293; percent inhibition of enhanced ramp current at 1 μM; +600 mv/sec ramp from −100 mV to +20 mV
T7 construct: expressed in transfected cells; host or cells: HEK-293
Procedure: as §1
(§4) The Nav1.6 mutant channels (hNaV1.6-R223G, hNaV1.6-N984K, hNaV1.6-N1768D) express an enhanced sodium current in response to a ramp voltage depolarization when compared to the wild-type hNaV1.6-WT. This enhanced, depolarizing ramp current is thought to contribute to enhanced neuronal excitability. The degree of block with exemplary compounds (e.g., as described herein) was measured using a +600 mv/sec voltage ramp from −100 mV to +20 mV. The ramp current was defined as the area of the current measured between −55 mV and +15 mV. Following steady state block with exemplary compounds (e.g., as described herein) at 1 μM, a Na^+ free solution containing an impermeant cation (e.g., Choline or NMDG) was added for determination of the baseline current level for offline subtraction. Percent inhibition of enhanced ramp current was calculated as (compound−baseline)/(control−baseline)*100, where control represents the ramp current recorded in the absence of compound. In this table, “A” indicates inhibition between less than 0% to 50% and “B” indicates inhibition of greater than 50% and N/A indicates the compound was not tested.

[8] = molecular target: T8, hNaV1.6-N984K (Homo sapiens, UniProt Q9UQD0, N984K); experiment: as above; format: cell-based; settings: HEK293; percent inhibition of enhanced ramp current at 1 μM; +600 mv/sec ramp from −100 mV to +20 mV
T8 construct: expressed in transfected cells; host or cells: HEK-293
Procedure: as §1, §4

[9] = molecular target: T9, hNaV1.6-R223G (Homo sapiens, UniProt Q9UQD0, R223G); experiment: as above; format: cell-based; settings: HEK293; percent inhibition of enhanced ramp current at 1 μM; +600 mv/sec ramp from −100 mV to +20 mV
T9 construct: expressed in transfected cells; host or cells: HEK-293
Procedure: as §1, §4

[10] = test system: Male CD-1 mice; experiment: Maximal Electroshock induced Seizure (MES) assay in mice; format: in vivo, mouse; settings: 35% HPCD, recorded up to 60 seconds post stimulus
Procedure: Male CD-1 mice, weighing 25-35 g were assessed in the Maximal Electroshock induced Seizure (MES) assay. Briefly, mice were dosed with compound (n=12/group) according to the dosing parameters in Table 20 and the latency to induce tonic hind limb extension following transauricular electrical stimulation (50 Hz, 50 mA, 0.8 sec duration, pulse width of 10 ins) was recorded up to 60 seconds post stimulus.

[11] = molecular target: T10, hNaV1.2-WT (Homo sapiens, UniProt Q99250); experiment: Voltage step activated sodium current (Peak INa), PatchXpress, HEK-293; format: cell-based; settings: percent inhibition measured at 1 μM; step to 0 mV from half-inactivation holding potential
T10 construct: expressed in transfected cells; host or cells: HEK-293
Procedure: as §1, §2, §3

[12] = molecular target: T11, human NaV 1.2 (h NaV 1.2) (Homo sapiens, UniProt Q99250); experiment: Modulation of late sodium current (INaL), PatchXpress electrophysiology, HEK-293 cells expressing hNaV1.2; format: cell-based; settings: HEK293, read-out: NaV 1.2 Assay Data: percent inhibition of INaL at hNaV1.2
T11 construct: expressed in transfected cells; host or cells: HEK-293

[13] = 3 mg/kg PO, pre-treatment 30 min
[14] = 10 mg/kg PO, pre-treatment 30 min
[15] = 1 mg/kg PO, pre-treatment 30 min

T9 sequence (Q9UQD0 whole entry R223G): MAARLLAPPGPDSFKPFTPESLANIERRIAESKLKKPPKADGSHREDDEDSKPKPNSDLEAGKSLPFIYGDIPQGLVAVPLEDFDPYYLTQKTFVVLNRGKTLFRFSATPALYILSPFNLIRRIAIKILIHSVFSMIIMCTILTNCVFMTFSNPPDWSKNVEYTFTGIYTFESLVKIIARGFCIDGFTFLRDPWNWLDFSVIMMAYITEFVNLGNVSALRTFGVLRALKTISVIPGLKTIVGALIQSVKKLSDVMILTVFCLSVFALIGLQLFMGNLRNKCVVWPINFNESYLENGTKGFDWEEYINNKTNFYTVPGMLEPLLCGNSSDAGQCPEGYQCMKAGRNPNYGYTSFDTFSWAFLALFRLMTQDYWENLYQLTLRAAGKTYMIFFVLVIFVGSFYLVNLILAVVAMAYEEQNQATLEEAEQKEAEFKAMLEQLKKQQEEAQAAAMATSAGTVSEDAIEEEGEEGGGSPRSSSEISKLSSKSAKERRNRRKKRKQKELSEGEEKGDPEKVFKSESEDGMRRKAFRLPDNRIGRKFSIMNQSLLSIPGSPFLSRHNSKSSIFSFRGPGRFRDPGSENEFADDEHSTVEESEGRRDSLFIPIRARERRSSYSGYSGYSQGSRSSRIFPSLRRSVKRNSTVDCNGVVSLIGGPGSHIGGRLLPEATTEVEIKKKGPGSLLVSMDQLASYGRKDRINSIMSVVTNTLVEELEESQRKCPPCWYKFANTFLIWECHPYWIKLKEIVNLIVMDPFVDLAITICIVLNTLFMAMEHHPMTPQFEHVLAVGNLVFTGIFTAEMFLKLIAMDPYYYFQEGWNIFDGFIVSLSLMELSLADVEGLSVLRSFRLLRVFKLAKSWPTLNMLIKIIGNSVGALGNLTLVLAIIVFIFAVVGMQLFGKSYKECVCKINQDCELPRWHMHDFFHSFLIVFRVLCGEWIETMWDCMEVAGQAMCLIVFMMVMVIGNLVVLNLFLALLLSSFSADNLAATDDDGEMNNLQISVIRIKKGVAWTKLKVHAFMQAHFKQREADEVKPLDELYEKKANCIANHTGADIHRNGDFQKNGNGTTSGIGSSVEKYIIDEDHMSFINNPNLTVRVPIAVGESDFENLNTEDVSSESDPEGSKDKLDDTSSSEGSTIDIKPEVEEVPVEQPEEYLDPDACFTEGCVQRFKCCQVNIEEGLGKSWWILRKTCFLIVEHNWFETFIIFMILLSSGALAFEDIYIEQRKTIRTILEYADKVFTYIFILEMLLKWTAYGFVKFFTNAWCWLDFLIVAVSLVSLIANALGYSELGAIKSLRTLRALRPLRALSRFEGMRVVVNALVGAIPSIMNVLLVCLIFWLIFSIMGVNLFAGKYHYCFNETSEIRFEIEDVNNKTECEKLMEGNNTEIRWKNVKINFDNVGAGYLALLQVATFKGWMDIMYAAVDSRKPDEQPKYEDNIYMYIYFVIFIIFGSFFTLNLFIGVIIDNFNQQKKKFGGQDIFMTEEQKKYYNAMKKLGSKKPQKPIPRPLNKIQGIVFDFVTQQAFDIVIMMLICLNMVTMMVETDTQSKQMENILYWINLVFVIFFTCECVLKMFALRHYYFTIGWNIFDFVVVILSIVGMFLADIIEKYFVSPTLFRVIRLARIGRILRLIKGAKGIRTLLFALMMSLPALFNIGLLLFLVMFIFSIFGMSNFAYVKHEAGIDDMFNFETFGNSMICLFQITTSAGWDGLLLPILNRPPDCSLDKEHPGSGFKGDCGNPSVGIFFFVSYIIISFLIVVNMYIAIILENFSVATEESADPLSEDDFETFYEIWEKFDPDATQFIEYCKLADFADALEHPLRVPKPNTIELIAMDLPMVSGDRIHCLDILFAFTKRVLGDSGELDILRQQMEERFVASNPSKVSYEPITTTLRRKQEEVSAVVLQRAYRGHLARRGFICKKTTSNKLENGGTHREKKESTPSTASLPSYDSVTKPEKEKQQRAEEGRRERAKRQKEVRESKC
T8 sequence (Q9UQD0 whole entry N984K): as the sequence (Q9UQD0 whole entry R223G) above, with G223R, N984K counted along it
T5 sequence (Q15858 whole entry): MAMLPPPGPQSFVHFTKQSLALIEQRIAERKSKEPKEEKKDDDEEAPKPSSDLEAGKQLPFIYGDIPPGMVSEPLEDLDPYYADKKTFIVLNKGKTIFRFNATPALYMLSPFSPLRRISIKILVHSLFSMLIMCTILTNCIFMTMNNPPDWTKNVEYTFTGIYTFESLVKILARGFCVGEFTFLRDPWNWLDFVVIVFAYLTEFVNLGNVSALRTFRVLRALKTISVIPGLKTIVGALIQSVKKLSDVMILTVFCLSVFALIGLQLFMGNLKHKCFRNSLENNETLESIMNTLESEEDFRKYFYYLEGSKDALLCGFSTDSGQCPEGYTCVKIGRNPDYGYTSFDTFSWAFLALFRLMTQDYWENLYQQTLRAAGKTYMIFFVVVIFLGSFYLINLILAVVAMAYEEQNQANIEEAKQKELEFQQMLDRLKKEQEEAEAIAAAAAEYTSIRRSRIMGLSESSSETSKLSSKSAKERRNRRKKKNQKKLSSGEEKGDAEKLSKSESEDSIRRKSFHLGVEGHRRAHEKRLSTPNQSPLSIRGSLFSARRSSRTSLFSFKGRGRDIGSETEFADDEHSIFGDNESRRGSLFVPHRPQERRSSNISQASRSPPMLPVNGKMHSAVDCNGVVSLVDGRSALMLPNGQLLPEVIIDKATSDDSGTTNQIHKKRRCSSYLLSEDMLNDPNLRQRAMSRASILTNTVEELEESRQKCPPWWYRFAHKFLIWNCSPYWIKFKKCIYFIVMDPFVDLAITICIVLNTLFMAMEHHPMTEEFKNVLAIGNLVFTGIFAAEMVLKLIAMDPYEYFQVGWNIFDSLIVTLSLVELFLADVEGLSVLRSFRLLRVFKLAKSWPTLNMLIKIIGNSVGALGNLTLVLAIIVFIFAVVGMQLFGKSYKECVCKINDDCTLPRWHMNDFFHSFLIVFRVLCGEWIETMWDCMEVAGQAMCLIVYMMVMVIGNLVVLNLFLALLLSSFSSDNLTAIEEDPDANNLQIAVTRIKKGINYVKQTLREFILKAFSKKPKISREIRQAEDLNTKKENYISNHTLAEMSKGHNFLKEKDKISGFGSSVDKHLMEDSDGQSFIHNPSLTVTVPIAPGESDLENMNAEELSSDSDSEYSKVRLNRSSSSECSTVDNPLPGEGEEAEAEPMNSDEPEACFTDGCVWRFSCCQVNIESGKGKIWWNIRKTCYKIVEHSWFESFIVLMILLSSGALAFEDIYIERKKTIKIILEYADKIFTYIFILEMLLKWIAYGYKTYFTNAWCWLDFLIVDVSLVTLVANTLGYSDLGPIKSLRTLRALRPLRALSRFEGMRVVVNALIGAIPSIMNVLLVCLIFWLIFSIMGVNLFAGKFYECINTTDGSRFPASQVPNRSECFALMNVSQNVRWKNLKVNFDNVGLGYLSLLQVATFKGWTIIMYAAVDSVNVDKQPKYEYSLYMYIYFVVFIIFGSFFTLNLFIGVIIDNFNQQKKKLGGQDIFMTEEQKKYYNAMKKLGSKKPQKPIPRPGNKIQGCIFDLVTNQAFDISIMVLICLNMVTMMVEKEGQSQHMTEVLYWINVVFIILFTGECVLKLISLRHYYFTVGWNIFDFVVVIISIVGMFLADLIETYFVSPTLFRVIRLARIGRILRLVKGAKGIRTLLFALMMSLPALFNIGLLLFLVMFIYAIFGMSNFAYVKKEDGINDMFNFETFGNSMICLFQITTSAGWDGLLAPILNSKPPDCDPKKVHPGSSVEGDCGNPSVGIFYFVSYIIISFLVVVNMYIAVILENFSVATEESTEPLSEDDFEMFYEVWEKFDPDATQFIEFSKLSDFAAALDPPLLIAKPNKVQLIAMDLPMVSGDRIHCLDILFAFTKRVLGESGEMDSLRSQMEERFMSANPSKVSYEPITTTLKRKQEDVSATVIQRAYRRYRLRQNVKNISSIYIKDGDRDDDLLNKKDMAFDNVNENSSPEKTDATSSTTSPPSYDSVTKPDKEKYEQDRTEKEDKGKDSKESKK
T4 sequence (Q9UQD0 whole entry): as the sequence (Q9UQD0 whole entry R223G) above, with G223R counted along it
T1 sequence (Q9UQD0 whole entry): as the sequence (Q9UQD0 whole entry R223G) above, with G223R counted along it
T7 sequence (Q9UQD0 whole entry N1768D): as the sequence (Q9UQD0 whole entry R223G) above, with G223R, N1768D counted along it

Structure (SMILES) | inhibition at 1 µM [1] | hNav1.1 Peak INa [2] | inhibition at 1 µM [4] | inhibition at 1 µM [5] | inhibition at 1 µM [6] | inhibition at 1 µM [7] | inhibition at 1 µM [8] | inhibition at 1 µM [9] | hNav1.2 Peak INa [11] | inhibition at 1 µM [12] | inhibition at 1 µM [3] | Mean latency to tonic extension [10, 13] | Mean latency to tonic extension [10, 14] | Mean latency to tonic extension ([10]; 1 mg/kg PO, pre-treatment 120 min) | Mean latency to tonic extension ([10]; 3 mg/kg PO, pre-treatment 120 min) | Mean latency to tonic extension [10, 15]
CCOC(F)(F)c1nnc2ccc(-c3cnc(OCC(F)(F)F)c(F)c3)cn12 [Compound 3, 3-[ethoxy(difluoro)methyl]-6-[5-fluoro-6-(2,2,2-trifluoroethoxy)-3-pyridyl]-[1,2,4]triazolo[4,3-a]pyridine] | > 70% | B (inhibition of greater than 50%) | > 50% | > 50% | > 50% | > 50% | > 50% | > 50% | – | – | > 50% | 60 s | 60 s | – | – | –
COC(F)(F)c1nnc2cnc(-c3cnc(O[C@@H](C)C(F)(F)F)c(F)c3)cn12 [Compound 6B, 3-[difluoro(methoxy)methyl]-6-[5-fluoro-6-[(1S)-2,2,2-trifluoro-1-methyl-ethoxy]-3-pyridyl]-[1,2,4]triazolo[4,3-a]pyrazine] | > 70% | B (inhibition of greater than 50%) | > 50% | > 50% | > 50% | > 50% | > 50% | > 50% | B (inhibition of greater than 50%) | – | > 50% | – | – | 17.3 s | 50.5 s | –
CCOC(F)(F)c1nnc2cnc(-c3cnc(OCC(F)(F)F)c(F)c3)cn12 [Compound 10] | > 70% | B (inhibition of greater than 50%) | > 50% | > 50% | > 50% | > 50% | < 50% | > 50% | A (inhibition between less than 0% to 50%) | > 70% | > 50% | 36.3 s | 55.2 s | – | – | 7.9 s
COC(F)(F)c1nnc2cnc(-c3cnc(OC4(C(F)(F)F)CCC4)c(F)c3)cn12 [Compound 11, 3-[difluoro(methoxy)methyl]-6-[5-fluoro-6-[1-(trifluoromethyl)cyclobutoxy]-3-pyridyl]-[1,2,4]triazolo[4,3-a]pyrazine] | > 70% | B (inhibition of greater than 50%) | > 50% | > 50% | > 50% | > 50% | > 50% | < 50% | – | – | > 50% | – | – | – | – | –
CCOC(F)(F)c1nnc2ccc(-c3cnc(OCC(F)(F)F)c(F)c3)nn12 [Compound 16, 3-[ethoxy(difluoro)methyl]-6-[5-fluoro-6-(2,2,2-trifluoroethoxy)-3-pyridyl]-[1,2,4]triazolo[4,3-b]pyridazine] | > 70% | – | – | – | – | – | – | – | – | > 70% | – | – | – | – | – | –
COC(F)(F)c1nnc2cnc(-c3cnc(OCC(F)(F)F)c(F)c3)cn12 [Compound 53, 3-[difluoro(methoxy)methyl]-6-[5-fluoro-6-(2,2,2-trifluoroethoxy)-3-pyridyl]-[1,2,4]triazolo[4,3-a]pyrazine] | > 70% | B (inhibition of greater than 50%) | > 50% | > 50% | > 50% | > 50% | < 50% | < 50% | A (inhibition between less than 0% to 50%) | > 70% | > 50% | 60 s | 60 s | – | – | 36.4 s

Second part, led by results:

inhibition at 1 µM [1] | hNav1.1 Peak INa [2] | inhibition at 1 µM [4] | inhibition at 1 µM [5] | inhibition at 1 µM [6] | inhibition at 1 µM [7] | inhibition at 1 µM [8] | inhibition at 1 µM [9] | hNav1.2 Peak INa [11] | inhibition at 1 µM [12] | Structure (SMILES) | inhibition at 1 µM [3] | Mean latency to tonic extension [10, 13] | Mean latency to tonic extension [10, 14] | Mean latency to tonic extension ([10]; 1 mg/kg PO, pre-treatment 120 min) | Mean latency to tonic extension ([10]; 3 mg/kg PO, pre-treatment 120 min) | Mean latency to tonic extension [10, 15]
> 70% | B (inhibition of greater than 50%) | > 50% | > 50% | > 50% | > 50% | > 50% | < 50% | B (inhibition of greater than 50%) | > 70% | COC(F)(F)c1nnc2cnc(-c3ccc(OC(C)(C)C(F)(F)F)nc3)cn12 [Compound 56, 3-[difluoro(methoxy)methyl]-6-[6-(2,2,2-trifluoro-1,1-dimethyl-ethoxy)-3-pyridyl]-[1,2,4]triazolo[4,3-a]pyrazine] | > 50% | – | – | – | – | –
> 70% | B (inhibition of greater than 50%) | > 50% | > 50% | > 50% | > 50% | > 50% | > 50% | B (inhibition of greater than 50%) | > 70% | COC(F)(F)c1nnc2cnc(-c3ccc(O[C@@H](C)C(F)(F)F)nc3)cn12 [Compound 59, 3-[difluoro(methoxy)methyl]-6-[6-[(1S)-2,2,2-trifluoro-1-methyl-ethoxy]-3-pyridyl]-[1,2,4]triazolo[4,3-a]pyrazine] | > 50% | – | – | – | – | –
> 70% | B (inhibition of greater than 50%) | > 50% | > 50% | > 50% | > 50% | > 50% | < 50% | B (inhibition of greater than 50%) | > 70% | COC(F)(F)c1nnc2cnc(-c3ccc(O[C@H](C)C(F)(F)F)nc3)cn12 [Compound 62, 3-[difluoro(methoxy)methyl]-6-[6-[(1R)-2,2,2-trifluoro-1-methyl-ethoxy]-3-pyridyl]-[1,2,4]triazolo[4,3-a]pyrazine] | > 50% | 46.1 s | – | – | – | 17.6 s
